We go through two compounds from patent US7022708B2, “4-piperazinyl benzenesulfonyl indoles and uses thereof” (Roche Palo Alto LLC, priority 2002, dated 2006).

Broadly, the melting point is the temperature of the solid-liquid transition.

In the case of `O=S(=O)(c1ccc(N2CCNCC2)cc1)n1ccc2cc(F)ccc21` [Compound 1, 5-Fluoro-1-(4-piperazin-1-yl-benzenesulfonyl)-1H-indole], the melting point lay within 77 to 78 °C. Take `O=S(=O)(c1ccc(N2CCNCC2)cc1)c1cc2ccccc2[nH]1` [Compound 39, 2-(4-Piperazin-1-yl-benzenesulfonyl)-1H-indole]: the melting point was 246 to 248.5 °C.
